The source made the active and inactive calls.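 How the source made its calls: active means fitted curve falls past -35% activity change at a dose below twice the highest valid tested dose; inconclusive means no clear call, values can overlap the other calls; inactive means the rest, including activity opposite to the expected decrease.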
Tested on: not listed separately
Assay: killing of EWS/Fli1-dependent A673 cells, confirmation, cell-based, luminescence, retest at dose, dry powder (AID 743478)
Conditions: A673 viability, CellTiter-Glo ATP luminescence, 72 h; at 1.6 µM (top of the series)

Structure (SMILES)	activity change, negative = cytotoxicity
CCN(CCO)CCCOc1ccc2c(Nc3cc(CC(=O)Nc4cccc(F)c4)[nH]n3)ncnc2c1	-35.3% (inactive)

Same assay, conditions: A673 viability, CellTiter-Glo ATP luminescence, 72 h; at 6 µM (top of the series)

Structure (SMILES)	activity change, negative = cytotoxicity
Clc1ccc(-c2cnc3ccc(-c4ccccc4)cn23)cc1	1.33% (inactive)

Same assay, conditions: A673 viability, CellTiter-Glo ATP luminescence, 72 h; at 12 µM (top of the series)

Structure (SMILES)	activity change, negative = cytotoxicity
COc1ccc(NC(=O)Nc2ccc3c(c2)C(=O)N([C@@H](C)CO)C[C@H](C)[C@H](CN(C)Cc2ccc4c(c2)OCO4)O3)cc1	-32.3% (inactive)

Same assay, conditions: A673 viability, CellTiter-Glo ATP luminescence, 72 h; at 26 µM (top of the series)

Structure (SMILES)	activity change, negative = cytotoxicity
CCC(C)(C)C(=O)O[C@H]1C[C@@H](C)C=C2C=C[C@H](C)[C@H](CC[C@@H]3C[C@@H](O)CC(=O)O3)[C@H]21	-7.51% (inactive)
COc1ccc(C2CNC(=O)C2)cc1OC1CCCC1 (stereo not drawn)	-1.09% (inactive)
COc1ccc(-c2cc(NC(C)=O)c3ncc(-c4ccc(OC)c(OC)c4)n3c2)cc1	-6.5% (inactive)
O=C(Nc1c(Cl)cncc1Cl)c1ccc(OC(F)F)c(OCC2CC2)c1	7.47% (inactive)
COc1ccccc1C1C(C#N)=C(N)Oc2cc(N)ccc21 (stereo not drawn)	-4.28% (inactive)
N#CC1=C(N)Oc2cc(N)ccc2C1c1ccc(Cl)cc1 (stereo not drawn)	0.262% (inactive)
CN1c2ccc(-c3ccc(C#N)cc3)cc2[C@H]2[C@H](CCN2S(=O)(=O)c2ccc(F)cc2)[C@H]1CO	-15.2% (inactive)
Cc1ccc(C2C(C#N)=C(N)Oc3cc(N)ccc32)cc1 (stereo not drawn)	-0.754% (inactive)
COc1ccc(CNc2nc(N3CCC[C@H]3CO)ncc2C(=O)NCc2ncccn2)cc1Cl	0.28% (inactive)
COc1ccc(C2C(C#N)=C(N)Oc3cc(N)ccc32)cc1 (stereo not drawn)	-1.79% (inactive)
COc1ccc(C2=Nn3c(nnc3-c3ccccc3)SC2)cc1OC	-5.89% (inactive)
C[C@]1(c2nc3c(C(N)=O)cccc3[nH]2)CCCN1	-26% (inactive)

Same assay, conditions: A673 viability, CellTiter-Glo ATP luminescence, 72 h; at 50 µM (top of the series)

Structure (SMILES)	activity change, negative = cytotoxicity
O=P1(NCCCl)OCCCN1CCCl (stereo not drawn)	0.494% (inactive)

Tested on: A673 viability, CellTiter-Glo ATP luminescence, 72 h
Assay: as above
Conditions: not given

Structure (SMILES)	AC35 [µM]
Cc1c([C@H](C(Cl)Cl)[C@H](O)[C@H]2C[C@H](C)C(=O)O2)ccc2c1C(=O)[C@H]1[C@H]2C[C@@H](Br)[C@@]23O[C@@H](CO[C@H]2O)C[C@]13C	< 0.05
Cc1cc(Nc2cc(N3CCN(C)CC3)nc(Sc3ccc(NC(=O)C4CC4)cc3)n2)n[nH]1	0.271
Cc1ccc(S(=O)(=O)N2CC[C@@H]3[C@@H](CO)Nc4ccc(-c5ccc(C#N)cc5)cc4[C@@H]32)cc1	19.8
N#CC1=C(N)Oc2cc(N)ccc2C1c1cccc(Br)c1 (stereo not drawn)	0.104
CN(C(=O)CCCOc1ccc2[nH]c(=O)ccc2c1)C1CCCCC1	20.7
COc1ccc(C(=O)CC2(O)C(=O)Nc3c(Cl)ccc(Cl)c32)cc1 (stereo not drawn)	2.25
COc1ccc(-c2ccc3c(c2)[C@H]2[C@H](CCN2S(=O)(=O)c2ccc(OC)cc2)[C@@H](CO)N3)cc1	3.95
CCc1c2c(nc3ccc(O)cc13)-c1cc3c(c(=O)n1C2)COC(=O)C3(O)CC (stereo not drawn)	0.002
CC(C)N1c2ccccc2C(c2ccc(F)cc2)C1/C=C/C(O)CC(O)CC(=O)O (stereo not drawn)	1.42
CC[C@@]1(O)C(=O)OCc2c1cc1n(c2=O)Cc2cc3c(CN(C)C)c(O)ccc3nc2-1	0.0166
COc1ccc(S(=O)(=O)N(C(C)=O)c2ccc(OC(C)=O)c3ccccc23)cc1[N+](=O)[O-]	0.46
C[C@@]1(C(=O)Nc2ccc(F)nc2)CCCN1c1nc(Nc2cc(C3CC3)[nH]n2)c2cccn2n1	0.296
N#CC1=C(N)Oc2cc(N)ccc2C1c1ccccc1 (stereo not drawn)	12.2
Nc1ncnc2c1c(-c1cccc(OCc3ccccc3)c1)cn2C1CC(CN2CCCC2)C1 (stereo not drawn)	3.76
CCC(C)C(=O)OC1CC(C)C=C2C=CC(C)C(CCC(O)CC(O)CC(=O)O)C21 (stereo not drawn)	25.2
COc1ccc(-c2ccc3c(c2)[C@H]2[C@H](CCN2S(=O)(=O)c2ccc(OC)cc2)[C@@H](CO)N3C)cc1	3.42
Cc1nc(Nc2ncc(C(=O)Nc3c(C)cccc3Cl)s2)cc(N2CCN(CCO)CC2)n1	5.45
CC(C)(O)CCc1ccc(O)c2c(=O)c3c(O)c4c(cc3oc12)O[C@H]1OC=C[C@@]41O	0.0326
CCOC(=O)CCNc1cc(N2CCc3ccccc3CC2)nc(-c2ccccn2)n1	14.8
Nc1ccn([C@@H]2O[C@H](CO)[C@H](O)C2O)c(=O)n1 (stereo partly drawn)	0.066
CN1CCN(CCOc2cc(OC3CCOCC3)c3c(Nc4c(Cl)ccc5c4OCO5)ncnc3c2)CC1	22
N#CC1=C(N)Oc2cc(N)ccc2C12C(=O)Nc1ccc(Br)cc12 (stereo not drawn)	18.9

Reference: PubChem BioAssay AID743478 (Broad Institute, 2014)
